Experimental data: patent publication US7759367B2, “Pharmaceutical compositions and their uses” (Eisai R&D Management Co., Ltd., priority 2001, dated 2010)

Key:
Female Lewis rats = experiment: Experimental autoimmune encephalomyelitis model (Test Example 10); assay type: in vivo, rat; details: p.o. 5, 10 and 20 mg/kg, 10-16 dpi
Method: Female Lewis rats (205±10 g) obtained from Charles River, Kent UK, were housed in pairs under environmentally controlled conditions (6:00a.m.-6:00p.m. light/dark cycle; 22-24° C.; 45-55% humidity) and allowed free access to food and water. Experimental groups consisted of 9-12 animals. Rats were immunised in each hind foot with 20-50 μl of inoculum containing 50 μg guinea pig myelin basic protein (MBP; final concentration 2 mg/ml), emulsified in Freund's complete adjuvant (CFA; Sigma, UK) containing Mycobacterium tuberculosis H37Ra (final concentration 5.5 mg/ml; Difco Laboratories, UK). Animals were weighed and monitored daily and clinical disease scored as (0) no clinical signs; (1) flaccid tail and weight loss; (2) hind limb hypotonia with further weight loss; (3) complete hind limb paralysis; (4) paraplegia and (5) death. […] During the period of compound administration (10-16 days post immunisation; dpi) animals were scored 15 h after injection of vehicle or compound to avoid any acute effect of treatment on disease score. Compounds were dissolved/suspended in 0.5% methyl cellulose using a hand held Polytron homogeniser (PT1200; 2 min). Rats were dosed p.o. with either methyl cellulose vehicle (2.5 ml/kg) or compound at 5, 10 and 20 mg/kg.

AMPA receptor = details: primary culture of rat embryo cerebral cortex nerve cells; Fura2-AM; 2 μM AMPA; 1 μM MK-801;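 also: neurons cultured at least 8 to 10 days atop an astrocyte layer in 96-well plates, calcium entry read as the change in Fura2 fluorescence ratio at 340/380 nm excitation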
Method: Cerebral cortex was cut out from the brain of rat of gestational 18 days and treated with trypsin and DNase to disperse the cells. The cells were flown by MEM containing 10% of serum, sown in a culture bottle and astrocytes were proliferated. The astrocytes were re-dispersed by trypsin and sown in a 96-well plate. After incubation for one week, it was confirmed that the astrocytes covered all over the bottom and then the nerve cells of cerebral cortex which was dispersed by the above method were sown thereupon. After incubation for 24 hours, the medium was changed, the incubation was carried out for one week and, after that, the medium was changed to that containing 1 μM of MK-801. Nerve cells which were incubated for not shorter than 8 to 10 days were used.
Calcium influx into the cells was measured using Fura2-AM which was a calcium-sensitive fluorescent dye. It was treated in a medium containing Fura2-AM for 1 hour, incorporated into the cells, exchanged to a Tyrode solution containing 1 μM MK-801 and stimulation was carried out using 2 μM AMPA. Change in the amount of calcium flown into the cells were measured as the change in the fluorescent intensity at the exciting wave length of 340/380 nm.

male mice of ddy strain = experiment: Anticonvulsant action induced by AMPA (Test Example 2); assay type: in vivo; details: 25 mg/kg orally, AMPA 2 nmole/5 μl/minute/mouse into lateral ventricle 30 minutes or 1 hour after dosing
Method: A test compound was suspended in a 0.5% methyl cellulose solution or in sesame oil and was orally administered (25 mg/kg) to male mice of ddy strain. After 30 minutes or 1 hour from the oral administration, AMPA was continuously injected (2 nmole/5 μl/minute/mouse) into lateral ventricle to induce the convulsions. The effect was judged by a time-extending action until the convulsion takes place by a continuous injection of AMPA.

Lewis rats = experiment: Acute EAE in Lewis rats: Example 7 alone and combined with interferon-β (In Vivo Example 1); details: Lewis rat acute EAE, Example 7 10 mg/kg p.o., interferon-β 1×10^6 Units/rat s.c., once daily 7-16 dpi
Method: Female Lewis rats (200+10 g) obtained from Charles River, Kent, UK, were housed in pairs under environmentally controlled conditions (6:00 a.m.-6:00 p.m. light/dark cycle; 22-24° C.; 45-55% humidity) and allowed free access to food and water. Experimental groups consisted of 8 animals.
Rats were immunised in each hind foot with 15 μl of inoculum containing […] guinea pig myelin basic protein (MBP, prepared by the method of Dunkley and Carnegie (1974); final concentration 2 mg/ml), emulsified in Freund's complete adjuvant (CFA; Sigma, UK) containing Mycobacterium tuberculosis H37Ra (final concentration 5.5 mg/ml; Difco Laboratories, UK).
Animals were weighed and monitored daily and clinical disease scored as (0) no clinical signs; (1) flaccid tail and weight loss; (2) hind limb hypotonia with further weight loss; (3) complete hind limb paralysis; (4) paraplegia and (5) death. […] During the period of compound administration (7-16 days post immunisation; dpi) animals were scored 15 h after injection of vehicle, compound of example 7 or interferon-β to avoid any acute effect of treatment on disease score.
3-(2-Cyanophenyl)-1-phenyl-5-(2-pyridyl)-1,2-dihydropyridin-2-one; (example 7) was suspended in 0.5% methyl cellulose (MC) solution to obtain a compound concentration of 4 mg/ml. Interferon-β was dissolved in PBS to obtain a compound concentration of 5×10^6 Units/ml. Rats were dosed once daily (9 a.m.) on days 7 to 16 post immunisation with either vehicle (methyl cellulose p.o. and PBS s.c.), the compound alone in the dose of 10 mg/kg (p.o. plus vehicle PBS s.c), interferon-β alone in the dose of 1×10^6 Units/rat (s.c. plus methyl cellulose p.o.) or example 7 in the dose of 10 mg/kg (p.o) combined with interferon-β in the dose of 1×10^6 Units/rat (s.c.).

Which results are given for `N#Cc1ccccc1-c1cc(-c2ccccn2)cn(-c2ccccc2)c1=O` [Example 7, 3-(2-Cyanophenyl)-1-phenyl-5-(2-pyridyl)-1,2-dihydropyridin-2-one]?
Effect on EAE vs vehicle-administered group (Female Lewis rats): superior effect to the vehicle-administered group; IC50 (AMPA receptor): 100 nM; Anticonvulsant action (time-extending action until convulsion by continuous AMPA injection) (male mice of ddy strain): significant anticonvulsant action; Duration (days) (Lewis rats; mean and range, n=8): 3.0 (0-4) days; Onset (d.p.i.) (Lewis rats; mean and range, n=8 (n=1 for the combination)): 11.8 (11-15) d.p.i.; Effect on disease progression (paralysis, disease score, onset, duration) during EAE, in words (Lewis rats; n=8/group): significantly delayed disease onset, shortened disease duration and reduced peak and cumulative disease score; Peak Disease Score (Lewis rats; clinical score 0-5, mean and range, n=8): 1.8 (0-3); Cumulative Disease Score (Lewis rats; summation of individual daily disease scores, mean and range, n=8): 4.8 (0-10); Weight Loss (%) (Lewis rats; weight on 18 dpi as percent of maximum weight before disease onset, mean and range, n=8): 17 (10-23) %
